Target: T1, LXRβ receptor (Gal-hLXRβ-DEF in HG5LN HeLa cells) (Homo sapiens, UniProt P55055)
T1 construct: stably transported with the Gal-hLXRβ-DEF plasmid; expressed in transfected cells; host or cells: HG5LN cells (HeLa stably transfected with the (17mer)5-bGlob-Luc reporter)
T1 sequence (P55055 222-460 limits assumed): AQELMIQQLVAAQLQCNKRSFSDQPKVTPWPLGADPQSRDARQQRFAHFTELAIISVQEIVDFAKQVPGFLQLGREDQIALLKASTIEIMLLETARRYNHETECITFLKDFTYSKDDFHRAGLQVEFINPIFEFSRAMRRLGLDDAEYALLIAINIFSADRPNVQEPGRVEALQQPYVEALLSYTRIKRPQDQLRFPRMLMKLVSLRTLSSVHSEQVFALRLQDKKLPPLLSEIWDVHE
Assay: LXRβ transactivation test (luciferase reporter), determination of Kd apparent by crossover curves against a reference agonist
Format: cell-based
Conditions: for KdR/KdA: ratio of KdR to KdA
Protocol: This activity on the LXRβ receptors is measured in the transactivation test and quantified by means of the dissociation constant Kdapp (apparent), as described in Example 3.
The activity of the LXRβ receptors is measured in a transactivation test. Activation of the receptors with an agonist (activator) in HeLa cells leads to the expression of a reporter gene, luciferase, which, in the presence of a substrate, generates light. The activation of the receptors may thus be measured by quantifying the luminescence produced after incubating the cells in the presence of a reference agonist. The antagonist products displace the agonist from its site, thus preventing activation of the receptor: there will thus be a reduction in the light produced, which may be quantified. The agonist products are tested alone and their effect is measured by measuring the activation of luminescence after incubation.
Determination of the Kdapp:
In this study, a constant that is the affinity of the molecule for the receptor is determined. Since this value can fluctuate depending on the basal activity and the expression of the receptor, it is known as the Kd apparent (KdApp).
To determine this constant, “crossover curves” of the test product against a reference agonist are produced in a 96-well plate: […] of the test product plus a concentration 0 (in the rows) and 7 concentrations of the agonist plus a 0 concentration (in the columns). This is 88 measurement points for one product and one receptor. The remaining 8 wells are used for the 100% control (total agonist) and 0% control (DMSO).
These crossover curves make it possible to determine the AC50 values (concentration at which 50% activation is observed) of the reference ligand at various concentrations of the test product. These AC50 values are used to calculate the Schild regression by plotting a straight line corresponding to the Schild equation (“quantitation in receptor pharmacology,” Terry P. Kenakin, Receptors and Channels, 2001, 7, 371-385).
In the case of an antagonist, an IC50 value (concentration inhibiting 50% of the activity) is calculated by plotting the curve of the product at the concentration of the reference ligand giving 80% activation.
The cell lines used are HG5LN cells, HeLa cells stably transfected with the (17mer)5-bGlob-Luc reporter and also stably […] with the Gal-hLXRβ-DEF plasmid. These cells are inoculated into 96-well plates at a rate of 10 000 cells per well in 100 μl of DMEM medium free of phenol red and supplemented with 10% defatted calf serum. The plates are then incubated at 37° C. and 7% CO2 for 4 hours.
The various dilutions of the test products, of the reference ligand and of the 100% control (N-(2,2,2-trifluoroethyl)-N-[4-(trifluorohydroxy-trifluoromethylethyl)phenyl]benzenesulfonamide) and of the 0% control (0.2% dimethyl sulfoxide) are added at a rate of 5 μl per well. The plates are then incubated for 18 hours at 37° C. and 7% CO2.
The culture medium is removed by turning over and 100 μl of a 1:1 PBS/luciferine mixture are added to each well. After 5 minutes, the plates are read using a luminescence detector.

[1] = KdA, Affinity for the LXRβ receptor, HG5LN HeLa cells, Gal-hLXRβ-DEF, luciferase
[2] = KdApp, apparent dissociation constant, Schild regression, LXRβ receptor
[3] = KdR, Affinity for the LXRβ receptor, HG5LN HeLa cells, Gal-hLXRβ-DEF, luciferase

| SMILES | Kd [1] [µM] | Kd [2] [µM] | Kd [3] [µM] | KdR/KdA |
| --- | --- | --- | --- | --- |
| CCCC(=O)C1(c2ccccc2)CCN(C(=O)C(C)(C)Oc2ccccc2Cl)CC1 [Compound 47, 1-{1-[2-(2-chlorophenoxy)-2-methylpropionyl]4-phenylpiperidin-4-yl}butan-1-one] | 20 | 2 | 2 | 0.1 |
| CCCC(=O)C1(c2ccccc2)CCN(C(=O)CNC(=O)c2ccc(C3CCCCC3)cc2)CC1 [Compound 54, N-[2-(4-butyryl-4-phenylpiperidin-1-yl)-2-oxoethyl]-4-cyclohexylbenzamide] | 0.5 | 2 | 2 | 4 |
| CC(=O)C1(c2ccccc2)CCN(C(=O)CNC(=O)c2ccc(C3CCCCC3)cc2)CC1 [Compound 18, N-[2-(4-acetyl-4-phenylpiperidin-1-yl)-2-oxoethyl]-4-cyclohexylbenzamide] | 0.5 | 2 | 2 | 4 |
